# Values of other authors in patent US8865213B2, “Modified release pharmaceutical compositions” (USV Limited, priority 2009, dated 2014).
structure (smiles),measurement,setting,value
"COC(=O)C1=C(C)NC(C)=C(C(=O)OCC(C)C)C1c1ccccc1[N+](=O)[O-] (centres unmarked) [Nisoldipine, 3,5-pyridinedicarboxylic acid, 1,4-dihydro-2,6-dimethyl-4-(2-nitrophenyl)-, methyl 2-methyl-propyl ester]",Solubility in ethanol,ethanol,soluble
same,Solubility in water,water,practically insoluble
